Experimental data taken from US9169254B2, “Spiroimidazolone derivative” (Chugai Seiyaku Kabushiki Kaisha, priority 2009, dated 2015).

Each compound was assayed against T1, human PTH1 receptor (Homo sapiens, UniProt Q03431) (assay: In vitro cAMP signal activity in HKRK-B7 cells (LLC-PK1 cells overexpressing the human PTH1 receptor)). Conditions: HKRK-B7 cells; compound at 1×10^−3 M; cAMP produced as percentage of that produced by hPTH(1-34) at 100 nM.
T1 sequence (Q03431 27-593): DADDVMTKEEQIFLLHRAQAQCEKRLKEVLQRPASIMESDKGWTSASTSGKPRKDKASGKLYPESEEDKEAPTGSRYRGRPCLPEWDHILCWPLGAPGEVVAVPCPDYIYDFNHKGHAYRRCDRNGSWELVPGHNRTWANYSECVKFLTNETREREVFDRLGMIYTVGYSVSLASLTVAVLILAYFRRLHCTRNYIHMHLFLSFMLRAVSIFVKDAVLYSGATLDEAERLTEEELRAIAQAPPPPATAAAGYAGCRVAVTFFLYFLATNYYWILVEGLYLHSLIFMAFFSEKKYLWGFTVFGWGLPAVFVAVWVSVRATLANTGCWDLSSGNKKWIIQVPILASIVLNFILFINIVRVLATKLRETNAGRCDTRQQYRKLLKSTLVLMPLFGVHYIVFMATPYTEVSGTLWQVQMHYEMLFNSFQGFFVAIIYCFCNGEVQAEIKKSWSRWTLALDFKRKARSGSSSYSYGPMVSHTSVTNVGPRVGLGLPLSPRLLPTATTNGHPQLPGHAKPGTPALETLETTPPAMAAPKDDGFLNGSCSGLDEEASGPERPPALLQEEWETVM
Assay type: cell-based

Row | Compound | cAMP production activity (%)
1 | Cc1cc(NCCO)ccc1CCS(=O)(=O)N1CCC2(CC1)N=C(c1cccc(OC(F)(F)F)c1)NC2=O [Compound 159, 8-{2-[4-(2-Hydroxy-ethylamino)-2-methyl-phenyl]-ethanesulfonyl}-2-(3-trifluoromethoxy-phenyl)-1,3,8-triaza-spiro[4.5]dec-1-en-4-one] | 96%
2 | Cc1cc(NCCO)ccc1CCS(=O)(=O)N1CCC2(CC1)N=C(c1cccc(C(F)(F)F)c1)NC2=O [Compound 160, 8-{2-[4-(2-hydroxy-ethylamino)-2-methyl-phenyl]-ethanesulfonyl}-2-(3-trifluoromethyl-phenyl)-1,3,8-triaza-spiro[4.5]dec-1-en-4-one] | 65%
3 | Cc1cc(NCCO)ccc1CCS(=O)(=O)N1CCC2(CC1)N=C(c1ccc(C(F)(F)F)cc1)NC2=O [Compound 161, 8-{2-[4-(2-hydroxy-ethylamino)-2-methyl-phenyl]-ethanesulfonyl}-2-(4-trifluoromethyl-phenyl)-1,3,8-triaza-spiro[4.5]dec-1-en-4-one] | 69%
4 | Cc1cc(CNC(=O)OC(C)(C)C)ccc1CCS(=O)(=O)N1CCC2(CC1)N=C(C(C)(C)C)NC2=O [Compound 162, {4-[2-(2-tert-Butyl-4-oxo-1,3,8-triaza-spiro[4.5]dec-1-ene-8-sulfonyl)-ethyl]-3-methyl-benzyl}-carbamic acid tert-butyl ester] | 43%
5 | Cc1cc(CNC(=O)OC(C)(C)C)ccc1CCS(=O)(=O)N1CCC2(CC1)N=C(C1CCC(F)(F)CC1)NC2=O [Compound 163, (4-{2-[2-(4,4-difluoro-cyclohexyl)-4-oxo-1,3,8-triaza-spiro[4.5]dec-1-ene-8-sulfonyl]-ethyl}-3-methyl-benzyl)-carbamic acid tert-butyl ester] | 41%
6 | Cc1cc(CNC(=O)OC(C)(C)C)ccc1CCS(=O)(=O)N1CCC2(CC1)N=C(c1ccc(F)c(C(F)(F)F)c1)NC2=O [Compound 164, (4-{2-[2-(4-fluoro-3-trifluoromethyl-phenyl)-4-oxo-1,3,8-triaza-spiro[4.5]dec-1-ene-8-sulfonyl]-ethyl}-3-methyl-benzyl)-carbamic acid tert-butyl ester] | 45%
7 | Cc1cc(CNC(=O)OC(C)(C)C)ccc1CCS(=O)(=O)N1CCC2(CC1)N=C(C1CCOCC1)NC2=O [Compound 165, (3-methyl-4-{2-[4-oxo-2-(tetrahydro-pyran-4-yl)-1,3,8-triaza-spiro[4.5]dec-1-ene-8-sulfonyl]-ethyl}-benzyl)-carbamic acid tert-butyl ester] | 37%
8 | Cc1cc(C(=O)N(C)C)ccc1CCS(=O)(=O)N1CCC2(CC1)N=C(c1cccc(COCC(F)(F)F)c1)NC2=O [Compound 168, 3,N,N-Trimethyl-4-(2-{4-oxo-2-[3-(2,2,2-trifluoro-ethoxymethyl)-phenyl]-1,3,8-triaza-spiro[4.5]dec-1-ene-8-sulfonyl}-ethyl)-benzamide] | 69%
9 | Cc1cc(C(=O)N(C)C)ccc1CCS(=O)(=O)N1CCC2(CC1)N=C(c1cccc(COCC(F)F)c1)NC2=O [Compound 169, 4-(2-{2-[3-(2,2-difluoro-ethoxymethyl)-phenyl]-4-oxo-1,3,8-triaza-spiro[4.5]dec-1-ene-8-sulfonyl}-ethyl)-3,N,N-trimethyl-benzamide] | 71%
10 | Cc1cc(C(=O)N(C)C)ccc1CCS(=O)(=O)N1CCC2(CC1)N=C(c1cccc(COCC(F)(F)C(F)F)c1)NC2=O [Compound 170, 3,N,N-trimethyl-4-(2-{4-oxo-2-[3-(2,2,3,3-tetrafluoro-propoxymethyl)-phenyl]-1,3,8-triaza-spiro[4.5]dec-1-ene-8-sulfonyl}-ethyl)-benzamide] | 77%
11 | Cc1cc(C(=O)N(C)C)ccc1CCS(=O)(=O)N1CCC2(CC1)N=C(c1cccc(-c3c(C)noc3C)c1)NC2=O [Compound 171, 4-(2-{2-[3-(3,5-Dimethyl-isoxazol-4-yl)-phenyl]-4-oxo-1,3,8-triaza-spiro[4.5]dec-1-ene-8-sulfonyl}-ethyl)-3,N,N-trimethyl-benzamide] | 36%
12 | Cc1cc(C(=O)N(C)C)ccc1CCS(=O)(=O)N1CCC2(CC1)N=C(c1cccc(-c3ccccc3)c1)NC2=O [Compound 172, 4-[2-(2-biphenyl-3-yl-4-oxo-1,3,8-triaza-spiro[4.5]dec-1-ene-8-sulfonyl)-ethyl]-3,N,N-trimethyl-benzamide] | 102%
13 | Cc1cc(C(=O)N(C)C)ccc1CCS(=O)(=O)N1CCC2(CC1)N=C(c1cccc(-c3cccnc3)c1)NC2=O [Compound 173, 3,N,N-trimethyl-4-{2-[4-oxo-2-(3-pyridin-3-yl-phenyl)-1,3,8-triaza-spiro[4.5]dec-1-ene-8-sulfonyl]-ethyl}-benzamide] | 71%
14 | COC(=O)c1cccc(C2=NC3(CCN(S(=O)(=O)CCc4ccc(C(=O)N(C)C)cc4C)CC3)C(=O)N2)c1 [Compound 174, 3-{8-[2-(4-Dimethylcarbamoyl-2-methyl-phenyl)-ethanesulfonyl]-4-oxo-1,3,8-triaza-spiro[4.5]dec-1-en-2-yl}-benzoic acid methyl ester] | 68%
15 | Cc1cc(C(=O)N(C)C)ccc1CCS(=O)(=O)N1CCC2(CC1)N=C(C(C)(C)Oc1ccc(Cl)cc1Cl)NC2=O [Compound 175, 4-(2-{2-[1-(2,4-Dichloro-phenoxy)-1-methyl-ethyl]-4-oxo-1,3,8-triaza-spiro[4.5]dec-1-ene-8-sulfonyl}-ethyl)-3,N,N-trimethyl-benzamide] | 73%
16 | Cc1cc(C(=O)N(C)C)ccc1CCS(=O)(=O)N1CCC2(CC1)N=C(COc1ccc(F)c(F)c1F)NC2=O [Compound 176, 3,N,N-trimethyl-4-{2-[4-oxo-2-(2,3,4-trifluoro-phenoxymethyl)-1,3,8-triaza-spiro[4.5]dec-1-ene-8-sulfonyl]-ethyl}-benzamide] | 74%
17 | O=C1NC(C2CCCCC2)=NC12CCN(S(=O)(=O)/C=C/c1c(F)cccc1C(F)(F)F)CC2 [Compound 183, 2-cyclohexyl-8-[(E)-2-(2-fluoro-6-trifluoromethyl-phenyl)-ethenesulfonyl]-1,3,8-triaza-spiro[4.5]dec-1-en-4-one] | 68%
18 | O=C1NC(C2CCCCC2)=NC12CCN(S(=O)(=O)/C=C/c1cccc(F)c1C(F)(F)F)CC2 [Compound 185, 2-cyclohexyl-8-[(E)-2-(3-fluoro-2-trifluoromethyl-phenyl)-ethenesulfonyl]-1,3,8-triaza-spiro[4.5]dec-1-en-4-one] | 33%

More lines, now with the values ahead:

Row | cAMP production activity (%) | Compound
19 | 56% | Nc1cccc(CCS(=O)(=O)N2CCC3(CC2)N=C(C2CCCCC2)NC3=O)c1 [Compound 166, 8-[2-(3-Amino-phenyl)-ethanesulfonyl]-2-cyclohexyl-1,3,8-triaza-spiro[4.5]dec-1-en-4-one]
20 | 44% | CC(=O)Nc1ccc(CCS(=O)(=O)N2CCC3(CC2)N=C(C2CCCCC2)NC3=O)cc1 [Compound 167, N-{4-[2-(2-Cyclohexyl-4-oxo-1,3,8-triaza-spiro[4.5]dec-1-ene-8-sulfonyl)-ethyl]-phenyl}-acetamide]
21 | 28% | CCc1cccc(NS(=O)(=O)N2CCC3(CC2)N=C(C2CCCCC2)NC3=O)c1 [Compound 177, 2-Cyclohexyl-4-oxo-1,3,8-triaza-spiro[4.5]dec-1-ene-8-sulfonic (3-ethylphenyl)amide]
22 | 29% | O=C1NC(C2CCCCC2)=NC12CCN(S(=O)(=O)/C=C/c1ccc3[nH]ccc3c1)CC2 [Compound 178, 2-Cyclohexyl-8-[(E)-2-(1H-indol-5-yl)-ethenesulfonyl]-1,3,8-triaza-spiro[4.5]dec-1-en-4-one]
23 | 49% | O=C1NC(C2CCCCC2)=NC12CCN(S(=O)(=O)/C=C/c1ccccc1C(F)(F)F)CC2 [Compound 179, 2-cyclohexyl-8-[(E)-2-(2-trifluoromethyl-phenyl)-ethenesulfonyl]-1,3,8-triaza-spiro[4.5]dec-1-en-4-one]
24 | 60% | COc1cccc(/C=C/S(=O)(=O)N2CCC3(CC2)N=C(C2CCCCC2)NC3=O)c1 [Compound 180, 2-cyclohexyl-8-[(E)-2-(3-methoxy-phenyl)-ethenesulfonyl]-1,3,8-triaza-spiro[4.5]dec-1-en-4-one]
25 | 19% | COc1ccccc1/C=C/S(=O)(=O)N1CCC2(CC1)N=C(C1CCCCC1)NC2=O [Compound 181, 2-cyclohexyl-8-[(E)-2-(2-methoxy-phenyl)-ethenesulfonyl]-1,3,8-triaza-spiro[4.5]dec-1-en-4-one]
26 | 38% | O=C1NC(C2CCCCC2)=NC12CCN(S(=O)(=O)/C=C/c1cccc3[nH]ccc13)CC2 [Compound 182, 2-cyclohexyl-8-[(E)-2-(1H-indol-4-yl)-ethenesulfonyl]-1,3,8-triaza-spiro[4.5]dec-1-en-4-one]
27 | 37% | O=C1NC(C2CCCCC2)=NC12CCN(S(=O)(=O)/C=C/c1cccc(F)c1F)CC2 [Compound 184, 2-cyclohexyl-8-[(E)-2-(2,3-difluoro-phenyl)-ethenesulfonyl]-1,3,8-triaza-spiro[4.5]dec-1-en-4-one]
28 | 51% | Cc1ccccc1/C=C/S(=O)(=O)N1CCC2(CC1)N=C(C1CCCCC1)NC2=O [Compound 186, 2-cyclohexyl-8-((E)-2-o-tolyl-ethenesulfonyl)-1,3,8-triaza-spiro[4.5]dec-1-en-4-one]
